Reference: patent US9062095B2, “Mutant double cyclized receptor peptides inhibiting β1-adrenoceptor antibodies” (JULIUS-MAXIMILIANS-UNIVERSTITAT-WURZBURG, priority 2007, dated 2015)
Positions of bridges follow the written chain, without caps; N, C: chain ends.

Legend:
[1] = tested on: beta1-ECII receptor antibody-titers; assay: in vivo therapy study cyc22AA versus cyc18AA Cys/Ser in rats immunized over 8 months: antibody-titers; design: species or system rat; conditions: injections every 4 weeks, start at month 8; mean ±SEM (FIG. 28A)
Description: FIGS. 28A and B depict the in vivo blocking (=neutralization) capacity of two cysteine-containing 18AA or 22AA cyclopeptide-mutants of the second extracellular loop (ECII) of the human beta1-adrenergic receptor upon therapeutic injection of the different constructs into rats regularly immunized since 8 months (first=basic immunization followed by 7 antigen-boosts every 4 weeks). The effects of four to five subsequent cyclopeptide-injections every 4 weeks are shown. FIG. 28A depicts the mean values±SEM of each of the treated groups of immunized beta1-ECII-antibody positive cardiomyopathic rats (animal number per group is given in the legend). […] The remaining receptor antibody-titers after each injection in % of the antibody-titers at start therapy (month 8) are depicted (columns). Error bars indicate ±SEM. Numbers in columns indicate the number of (subsequent) monthly injection.
FIG. 28B depicts the time course of antibody-titers after 4 subsequent cyclopeptide-injections, determined before and 20-22 hours after application of the indicated constructs. Values are given in percent of increase or decrease in the respective antibody-titers after each cyclopeptide-injection compared with the antibody-titer determined at start of therapy (month 8). […]

[2] = tested on: anti-beta1-receptor antibody-titers; assay: in vivo therapy study in long term immunized cardiomyopathic rats: antibody-titers by ELISA; design: species or system rat; conditions: for in vivo blocking capacity after the first i.v. injection: sera 18-20 hours after injection (FIGS. 14 and 15)
Procedure: FIG. 16A is a diagram resuming the in vivo blocking effect of both 25AA and 18AA cyclopeptide mutants with a Gln closure site, determined after a total of nine intravenous (i.v.) in-jections of 1.0 mg/kg body weight (Bw) of the indicated peptides into immunized antibody-positive rats. Sera were drawn before and 18-20 hours after i.v. injection of the various peptides every 4 weeks (abscissa: time in months of treatment) and assayed for reactivity by ELISA using the 3 Cys-containing linear 25AA Cys/Cys-peptide as an antigen.
FIG. 16B is a diagram resuming the in vivo blocking effect of various concentrations of 18AA cyclopeptide mutants with a Gln closure site, determined after a total of nine intra-venous (i.v.) injections of 0.25, 1.0, 2.0, and 4.0 mg/kg body weight (Bw) into immunized antibody-positive rats, irrespective of the cyclopeptide “responder-state” of individual animals. Sera were drawn before and 18-20 hours after i.v. injection of the various peptides every 4 weeks (abscissa: time in months), and assayed for reactivity by ELISA using the 3 Cys-containing linear 25AA Cys/Cys-peptide as an antigen.
Sera were drawn as described above and assayed for reactivity by ELISA using the 3 Cys-containing linear 25AA Cys/Cys-peptide as an antigen.
Moreover, the in vivo blocking effects of therapeutically used 25AA and 18AA Cys/Ser cyclo-peptide mutants, the 18AA Ser/Cys mutant (Gln-)cyclopeptide, and a mutated linear 18AA Cys/Ser peptide were assessed after a first intravenous (i.v.) dose (i.e., 1.0 mg/kg body weight (Bw)) of each construct injected into long term immunized anti-beta1-ECII antibody-positive rats, yet presenting a cardiomyopathic phenotype (after nine months of 1× monthly immunization with the beta1-ECII/GST antigen; FIGS. 14-16 and 17). Sera were drawn 18-20 hours after the first i.v. injection of the various constructions and assayed for reactivity by ELISA using the 3 Cys-containing linear 25AA Cys/Cys-peptide as an antigen.
The latter doses were almost equally efficient in terms of both, neutralization of circulating receptor antibodies (FIGS. 16b and c), and reversal of antibody-induced cardiomyopathic features (FIGS. 17b, 19b, 20, and 21b).
In order to generate anti-β1-receptor antibodies the animals were immunized with a fusion protein containing bacterial glutathione-S-transferase and the sequence of the second extra-cellular loop of the human β1-adrenergic receptor (GST/β1-ECII). Before treatment of the animals with mutated cyclopeptides according to the present invention, progressive dilated immune cardiomyopathy is observed after 6 to 8 months of regular immunization every four weeks (FIG. 17). All of the immunized animals developed high titers of stimulatory anti-β1-ECII antibodies. The specific anti-β1-ECII titer reached a maximum between 6 and 8 months of continuously boosting the animals every 4 weeks, whereas NaCl-injected control animals developed no specific receptor antibodies (FIG. 18).
Such immunized animals were used for the application of mutant cyclopeptides according to the present invention. The in-vivo blocking effect of both 25AA and 18AA Cys/Ser mutant cyclopeptides (with a Gln closure site) were determined after a first intravenous (i.v.) injection of 1.0 mg/kg body weight (Bw) (for 18AA Cys/Ser cyclopeptides also 0.25 mg/kg/Bw) into immunized antibody-positive rats. Sera were drawn 18-20 hours after i.v. injection of the different peptides and assayed for reactivity by ELISA using the 3 Cys-containing linear 25AA Cys/Cys-peptide as an antigen.

## Cyclo-Ala-Asp-Glu-Ala-Arg-Arg-Cys-Tyr-Asn-Asp-Pro-Lys-Cys-Ser-Asp-Phe-Val-Gln (cyclo(ADEARRCYNDPKCSDFVQ); disulfide 7-13; SMILES CC(C)[C@@H]1NC(=O)[C@H](Cc2ccccc2)NC(=O)[C@H](CC(=O)O)NC(=O)[C@H](CO)NC(=O)[C@@H]2CSSC[C@H](NC(=O)[C@H](CCCNC(=N)N)NC(=O)[C@H](CCCNC(=N)N)NC(=O)[C@H](C)NC(=O)[C@H](CCC(=O)O)NC(=O)[C@H](CC(=O)O)NC(=O)[C@H](C)NC(=O)[C@H](CCC(N)=O)NC1=O)C(=O)N[C@@H](Cc1ccc(O)cc1)C(=O)N[C@@H](CC(N)=O)C(=O)N[C@@H](CC(=O)O)C(=O)N1CCC[C@H]1C(=O)N[C@@H](CCCCN)C(=O)N2) [18AA Cys/Ser mutant (Gln-)cyclopeptide, disulphide bond Cys7-Cys13, ring closure Ala1-Gln18]
[1]
  antibody-titer remaining after 4 injections in percent of the titer at start of therapy: 76.0±23.0%
[2]; 0.25 mg/kg Bw (FIG. 16C)
  number of responders (after 7 injections remaining antibody level equal or inferior to 80% of titer at start of therapy): 3/4
[2]; 0.25 mg/kg Bw, repeated injections every 4 weeks
  achieved decrease in circulating receptor-antibodies compared with 1.0 or 2.0 mg/kg: clearly less efficient
[2]; 0.25 mg/kg body weight
  in vivo blocking capacity after the first i.v. injection: no relevant decrease in receptor-antibodies
[2]; 1.0 mg/kg Bw (FIG. 16C)
  number of responders (after 7 injections remaining antibody level equal or inferior to 80% of titer at start of therapy): 16/20
[2]; 1.0 mg/kg Bw (FIGS. 16a and b)
  initial transient increase in antibody-titers: did not occur
[2]; 1 mg/kg Bw, listed as 18AA Cys/Ser cyclopeptide mutant
  in vivo blocking capacity after the first i.v. injection: largely superior to that of the linear 18AA Cys/Ser peptide mutant
[2]; 1 mg/kg Bw, listed as 18AA Cys/Ser cyclopeptide mutants
  in vivo blocking capacity after the first i.v. injection: higher in vivo blocking capacity
[2]; 1.0 mg/kg i.v. every 4 weeks
  absolute decrease in antibody-titers after 9 months of treatment, of the titer at start of therapy: −59±14%
[2]; 2.0 mg/kg Bw
  initial transient increase in antibody-titers: did not occur
[2]; 2.0 mg/kg Bw (FIG. 16C)
  number of responders (after 7 injections remaining antibody level equal or inferior to 80% of titer at start of therapy): 2/5
[2]; 2.0 mg/kg i.v. every 4 weeks
  absolute decrease in antibody-titers after 9 months of treatment, of the titer at start of therapy: −59±12%
[2]; 4.0 mg/kg Bw (FIG. 16C)
  number of responders (after 7 injections remaining antibody level equal or inferior to 80% of titer at start of therapy): 6/9
[2]; 4.0 mg/kg Bw (high dose)
  initial transient increase in antibody-titers: transient increase in antibody-titers
[2]; 4.0 mg/kg body weight, repeated injections every 4 weeks
  antibody scavenging capacity compared with 1.0 or 2.0 mg/kg: did not result in higher efficiency
[2]; 4.0 mg/kg i.v. every 4 weeks
  absolute decrease in antibody-titers after 9 months of treatment, of the titer at start of therapy: −39±14%
